This is an account of results in article PMC6052416, “Selective inhibition of carbonic anhydrase-IX by sulphonamide derivatives induces pH and reactive oxygen species-mediated apoptosis in cervical cancer HeLa cells” (Journal of Enzyme Inhibition and Medicinal Chemistry, 2018).

Assay [1] deals with HeLa (cervix adenoma cancer cell). The assay can be described thus: WST-1 cytotoxicity, HeLa. Type of assay: cell-based, human. As to the method: Cancer and normal cell lines were purchased from ATCC and stored in liquid nitrogen. HT-29 (colon adenoma cancer), HeLa (cervix adenoma cancer cell), MDA-MB-231 (breast adenoma cancer cell), HEK-293 (embryonic kidney epithelial cell) and PNT-1A (normal prostate cells) cell lines were incubated in DMEM: F-12 and RPMI-1640, including 10% foetal bovine serum (FBS), 100 µg/mL streptomycin/100 IU/mL penicillin, at 37 °C in an incubator containing 5% CO2, 95% air in a humid atmosphere.
The cytotoxic effects of the substances were evaluated with WST-1 kits (Roche, Germany) in accordance with the manufacturer’s protocols. The cells were planted in 96-well plates (10^4 cells in each well). After incubation for 24 h, the media were discarded and the substances and 5-Fu as the control drug, at doses of 0, 2.5, 5, 10, 25, 50, 100 and 200 µM, were incubated for 24, 48 and 72 h. WST-1 reactive of 10 µL was added to all wells. Following 4-h incubation, the measurements were taken on a plate reader (Spectramax M5) at wavelengths of 450 and 630 nm. Graphs were then created and the IC50 value of each substance was calculated.

Assay [2] concerns the target hCA IX. Also on record: method as in PMID 25913118, PMID 26803577. The settings on record: cited from earlier work.
For assay [3], the system named is HeLa cells. The assay can be described thus: Western blot of apoptosis proteins and CA IX. Type of assay: cell-based, human. The settings on record: 24 h. Here is the method:
The cells were seeded on 6 cm^2 cell culture dishes and treated with sulphonamide compounds, at doses of 10–25–50 µM, for 24 h. The cells were then washed with cold PBS, which was followed by lysis with RIPA lysis buffer (10 mM Tris-HCl pH = 8, 1 mM EDTA, 1 mM EGTA, 140 mM NaCl, 1% Triton X-100, 0.1 SDS, 0.1% sodium deoxycholate), 1X phosphates and protease inhibitor (Santa Cruz Biotechnology, Dallas, USA). The acquired supernatants from the lysates which were centrifuged at 12,000 g, + 4 °C, for 10 min, were transferred to new tubes. Protein concentration was detected using the protein assay kit BCA (Thermo Fisher Scientific, Waltham, MA). After a 30-min period of protein (50 µg) standing in 10% SDS–PAGE gel at 50 V and at 80 V for 3 h, those were blotted to PVDF membrane at 70 V for 5 min (Bio-Rad Turbo Transfer System). After embedding in 1X TBST (12.1 g Tris, pH 7.5, 70 g NaCl, 0.1% Tween-20) containing 5% dry milk or 5% BSA, the primer monoclonal antibodies shown in Table 2 were applied to the membrane and left overnight, which was followed by washing with 1 X TBS-T and an incubation period with secondary antibodies of HRP rabbit or mouse (1/10.000) for 60 min. The membrane was again washed with 1 X TBS-T. For band imaging, ECL substrate (EMD Millipore Corp., Billerica, MA) was added and observations were made via the imaging system (LI-COR Odyssey Fc).
Background: Immunoblotting shows a protein as a band on a membrane.

Assay [4] concerns HeLa cells. The assay can be described thus: Cell cycle analysis by flow cytometry. The class given is cell-based, human. The settings on record: 24 h. Here is the method: Cell cycle analysis was performed using BD Cycletest™ Plus DNA Reagent kit (BD Biosciences). According to the kit protocol, 1 × 10^6 cells were planted in 6-well plates, and following 24 h, the cells were incubated for 24 h, with sulphonamide derivative compounds at concentrations of 10–25–50 µM. The cells were raised with trypsin handling and centrifuged at 1500 rpm for 5 min. A suspension was formed with 1X binding buffer, and respectively, 250 µL solution A was added and incubated in a light-free environment for 10 min; 200 µL solution B was added and incubated in a light-free environment for 10 min; and 200 µL solution C was added and incubated in at +4° C in a protected-light environment for 10 min. All analyses were performed by flow cytometry (BD Via, New Jersey, USA).
(In general: In flow cytometry, cells or beads pass a laser one at a time.)

Like-named read-outs stand apart in the source and are kept apart here. Where only a bound is given, the exact number is not on record here.

In general, IC50 refers to the concentration at which inhibition is half-maximal. In general, Ki refers to the equilibrium dissociation constant of an inhibitor or competing ligand from its target. In the case of `NS(=O)(=O)c1ccc(CCN=Cc2cc(Br)ccc2O)cc1` [Compound 1], the IC50 in assay [1] (WST-1, 24 h, mean of three experiments, read-out: IC50 HeLa 24 h) stood at 19.9 ± 1.1 µM. For the same molecule, in assay [1] (WST-1, 48 h, read-out: IC50 HeLa 48 h), the IC50 was found to be 18.8 ± 1.1 µM. For the same molecule, the IC50 in assay [1] (WST-1, 72 h, read-out: IC50 HeLa 72 h) came to 11.3 ± 1.1 µM. Moreover, the inhibition constant Ki in assay [2] is 0.187 µM. In assay [3] (HeLa, 50μM), the “CA IX protein expression” value is recorded as “increase” and the “cleaved caspase-8 level” value is given as “increase”. Moreover, in assay [3] (HeLa, 10, 25, 50 µM), the “cleaved caspase-9 level” value is given as “increase”. Also, in assay [3] (HeLa), the “cleaved caspase-3 level” value is “significantly increased” and the cleaved-PARP level result was “increase”. Also, in assay [4] (50μM), the S turned out to be 20.1% and the Sub-G1 is 10.8%. For the same molecule, the “dose from which the cell division effect was seen” value in assay [4] was at least 25 µM.
